In ChEMBL document CHEMBL5352488, “Development of novel S-N3-DABO derivatives as potent non-nucleoside reverse transcriptase inhibitors with improved potency and selectivity” (Eur J Med Chem, 2023):

Tests used:
[1] = tested on: Human immunodeficiency virus 1; assay: Anti-HIV activity against drug resistant HIV-1 harboring L100I mutant infected in human MT4 cells assessed as inhibition of virus-induced cytopathic effect by MTT assay; type: functional, organism-based; conditions: Human immunodeficiency virus 1, MT4
[2] = tested on: Human immunodeficiency virus 1; assay: Anti-HIV activity against wild type HIV-1 IIIB infected in human MT4 cells assessed as inhibition of virus-induced cytopathic effect by MTT assay; type: functional, organism-based; conditions: Human immunodeficiency virus 1, IIIB
[3] = tested on: Human immunodeficiency virus 1; assay: Anti-HIV activity against drug resistant HIV-1 harboring K103N mutant infected in human MT4 cells assessed as inhibition of virus-induced cytopathic effect by MTT assay; type: functional, organism-based; conditions: Human immunodeficiency virus 1, MT4
[4] = tested on: Human immunodeficiency virus 1; assay: Anti-HIV activity against drug resistant HIV-1 harboring E138K mutant infected in human MT4 cells assessed as inhibition of virus-induced cytopathic effect by MTT assay; type: functional, organism-based; conditions: Human immunodeficiency virus 1, MT4
[5] = tested on: Human immunodeficiency virus 1; assay: Anti-HIV activity against drug resistant HIV-1 harboring F227L/V106A mutant infected in human MT4 cells assessed as inhibition of virus-induced cytopathic effect by MTT assay; type: functional, organism-based; conditions: Human immunodeficiency virus 1, MT4
[6] = Cytotoxicity against human MT4 cells assessed as reduction in cell viability by MTT assay; type: toxicity, cell-based
[7] = tested on: Human immunodeficiency virus 1; assay: Anti-HIV activity against drug resistant HIV-1 harboring Y188L mutant infected in human MT4 cells assessed as inhibition of virus-induced cytopathic effect by MTT assay; type: functional, organism-based; conditions: Human immunodeficiency virus 1, MT4
[8] = Selectivity index, ratio of CC50 for cytotoxicity against human MT4 cells assessed as reduction in cell viability by MTT assay to EC50 for anti-HIV activity against wild type HIV-1 IIIB infected in human MT4 cells assessed as inhibition of virus-induced cytopathic effect by MTT assay; type: toxicity, cell-based; conditions: read-out: Ratio CC50/EC50
[9] = tested on: Human immunodeficiency virus 1; assay: Anti-HIV activity against drug resistant HIV-1 harboring Y181C mutant infected in human MT4 cells assessed as inhibition of virus-induced cytopathic effect by MTT assay; type: functional, organism-based; conditions: Human immunodeficiency virus 1, MT4
[10] = Acute toxicity in mouse assessed as histopathological changes in kidney at 1000 mg/kg, po by Hematoxylin and eosin staining based microscopy; type: organism-based; conditions: in vivo
hERG (KCNH2) = hERG (KCNH2) (Homo sapiens, UniProt Q12809); assay: Inhibition of human ERG expressed in CHO cells at 40 uM by automated patch-clamp electrophysiological assay; type: toxicity, cell-based; conditions: CHO cells that express hERG
Chain of hERG (KCNH2) (Q12809 whole entry): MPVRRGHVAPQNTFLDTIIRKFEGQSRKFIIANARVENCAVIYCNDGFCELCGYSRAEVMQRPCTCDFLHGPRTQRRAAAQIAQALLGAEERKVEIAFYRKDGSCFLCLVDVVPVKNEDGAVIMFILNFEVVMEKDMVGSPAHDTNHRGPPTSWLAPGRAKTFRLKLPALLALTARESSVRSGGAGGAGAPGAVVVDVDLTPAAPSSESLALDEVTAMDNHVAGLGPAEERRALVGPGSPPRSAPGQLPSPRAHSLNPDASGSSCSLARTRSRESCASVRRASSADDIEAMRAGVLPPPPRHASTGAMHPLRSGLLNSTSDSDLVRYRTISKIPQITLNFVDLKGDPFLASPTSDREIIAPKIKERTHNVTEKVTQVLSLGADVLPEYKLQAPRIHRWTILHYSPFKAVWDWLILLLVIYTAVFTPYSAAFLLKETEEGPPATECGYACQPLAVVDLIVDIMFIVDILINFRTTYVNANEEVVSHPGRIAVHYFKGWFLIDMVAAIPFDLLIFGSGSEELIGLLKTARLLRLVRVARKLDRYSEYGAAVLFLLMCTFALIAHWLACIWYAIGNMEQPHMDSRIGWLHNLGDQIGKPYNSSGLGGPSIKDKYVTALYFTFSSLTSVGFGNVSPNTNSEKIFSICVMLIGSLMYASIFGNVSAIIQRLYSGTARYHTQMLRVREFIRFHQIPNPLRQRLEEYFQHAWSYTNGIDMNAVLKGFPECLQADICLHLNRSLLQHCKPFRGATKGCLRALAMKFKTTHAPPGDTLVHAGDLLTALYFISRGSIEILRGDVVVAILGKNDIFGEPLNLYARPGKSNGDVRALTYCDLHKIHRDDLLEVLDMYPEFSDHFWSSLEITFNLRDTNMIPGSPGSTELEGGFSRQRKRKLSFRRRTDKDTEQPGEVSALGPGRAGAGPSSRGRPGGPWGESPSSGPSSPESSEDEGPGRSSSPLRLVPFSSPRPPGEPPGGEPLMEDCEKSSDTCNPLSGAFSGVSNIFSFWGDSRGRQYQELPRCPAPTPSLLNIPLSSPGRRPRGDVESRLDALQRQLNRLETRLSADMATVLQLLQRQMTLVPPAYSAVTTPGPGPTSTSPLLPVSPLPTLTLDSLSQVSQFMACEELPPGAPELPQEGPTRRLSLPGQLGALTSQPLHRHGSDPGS

[11] = Acute toxicity in mouse assessed as histopathological changes in brain at 1000 mg/kg, po by Hematoxylin and eosin staining based microscopy; type: organism-based; conditions: in vivo
[12] = Acute toxicity in mouse assessed as change in body weight at 1000 mg/kg, po; type: organism-based; conditions: in vivo
Cytochrome P450 3A4 [13] = target: T1, Cytochrome P450 3A4 (Homo sapiens, UniProt P08684); assay: Inhibition of CYP3A4T in human liver microsomes using testosterone as substrate measured after 10 mins in presence of NADPH; type: ADME, Microsome
T1 sequence (P08684 whole entry): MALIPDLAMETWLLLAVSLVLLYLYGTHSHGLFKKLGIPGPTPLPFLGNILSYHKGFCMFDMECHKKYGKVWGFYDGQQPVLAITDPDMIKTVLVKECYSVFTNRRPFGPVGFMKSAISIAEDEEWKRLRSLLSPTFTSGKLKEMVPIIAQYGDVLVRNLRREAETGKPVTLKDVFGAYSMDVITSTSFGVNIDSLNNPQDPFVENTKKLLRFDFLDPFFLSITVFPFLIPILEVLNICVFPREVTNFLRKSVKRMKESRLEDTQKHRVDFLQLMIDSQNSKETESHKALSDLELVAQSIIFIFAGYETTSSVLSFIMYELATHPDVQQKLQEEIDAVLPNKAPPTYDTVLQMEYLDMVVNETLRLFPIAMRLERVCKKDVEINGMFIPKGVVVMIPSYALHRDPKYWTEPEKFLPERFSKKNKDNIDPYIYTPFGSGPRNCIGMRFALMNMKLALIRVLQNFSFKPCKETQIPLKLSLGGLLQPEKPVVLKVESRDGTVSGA

[14] = Acute toxicity in mouse assessed as histopathological changes in lung at 1000 mg/kg, po by Hematoxylin and eosin staining based microscopy; type: organism-based; conditions: in vivo
Cytochrome P450 2C19 = Cytochrome P450 2C19 (Homo sapiens, UniProt P33261); assay: Inhibition of CYP2C19 in human liver microsomes using mephenytoin as substrate measured after 10 mins in presence of NADPH; type: ADME, Microsome
Chain of Cytochrome P450 2C19 (P33261 whole entry): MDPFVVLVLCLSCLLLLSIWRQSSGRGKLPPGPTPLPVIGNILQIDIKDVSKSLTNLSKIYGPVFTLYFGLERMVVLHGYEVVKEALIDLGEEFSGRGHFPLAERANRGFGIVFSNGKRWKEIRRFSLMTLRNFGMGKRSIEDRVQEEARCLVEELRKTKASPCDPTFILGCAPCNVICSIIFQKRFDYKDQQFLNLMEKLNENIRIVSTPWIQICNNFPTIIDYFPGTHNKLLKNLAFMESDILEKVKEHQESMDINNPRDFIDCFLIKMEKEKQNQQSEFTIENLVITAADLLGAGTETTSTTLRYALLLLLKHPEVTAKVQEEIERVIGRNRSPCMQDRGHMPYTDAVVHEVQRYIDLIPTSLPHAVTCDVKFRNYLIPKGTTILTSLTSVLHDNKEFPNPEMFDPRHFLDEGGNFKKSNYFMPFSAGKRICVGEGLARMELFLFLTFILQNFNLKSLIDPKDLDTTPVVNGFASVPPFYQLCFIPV

Cytochrome P450 1A2 = target: T2, Cytochrome P450 1A2 (Homo sapiens, UniProt P05177); assay: Inhibition of CYP1A2 in human liver microsomes using phenacetin as substrate measured after 10 mins in presence of NADPH; type: ADME, Microsome
T2 sequence (P05177 whole entry): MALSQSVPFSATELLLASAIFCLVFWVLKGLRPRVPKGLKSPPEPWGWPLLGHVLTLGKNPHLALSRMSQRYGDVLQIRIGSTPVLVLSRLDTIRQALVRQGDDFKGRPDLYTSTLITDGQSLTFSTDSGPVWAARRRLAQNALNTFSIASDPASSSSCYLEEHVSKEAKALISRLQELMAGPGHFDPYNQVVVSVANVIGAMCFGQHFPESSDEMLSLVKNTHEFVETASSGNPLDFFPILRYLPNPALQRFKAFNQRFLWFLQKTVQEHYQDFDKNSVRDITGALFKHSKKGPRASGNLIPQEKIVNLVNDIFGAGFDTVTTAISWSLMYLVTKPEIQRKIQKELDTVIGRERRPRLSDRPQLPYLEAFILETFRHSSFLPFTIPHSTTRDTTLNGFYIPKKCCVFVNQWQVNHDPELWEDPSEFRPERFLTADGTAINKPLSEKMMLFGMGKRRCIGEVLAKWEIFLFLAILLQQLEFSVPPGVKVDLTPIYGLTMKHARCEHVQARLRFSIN

Cytochrome P450 2D6 = Cytochrome P450 2D6 (Homo sapiens, UniProt P10635); assay: Inhibition of CYP2D6 in human liver microsomes using dextromethorphan as substrate measured after 10 mins in presence of NADPH; type: ADME, Microsome
Chain of Cytochrome P450 2D6 (P10635 whole entry): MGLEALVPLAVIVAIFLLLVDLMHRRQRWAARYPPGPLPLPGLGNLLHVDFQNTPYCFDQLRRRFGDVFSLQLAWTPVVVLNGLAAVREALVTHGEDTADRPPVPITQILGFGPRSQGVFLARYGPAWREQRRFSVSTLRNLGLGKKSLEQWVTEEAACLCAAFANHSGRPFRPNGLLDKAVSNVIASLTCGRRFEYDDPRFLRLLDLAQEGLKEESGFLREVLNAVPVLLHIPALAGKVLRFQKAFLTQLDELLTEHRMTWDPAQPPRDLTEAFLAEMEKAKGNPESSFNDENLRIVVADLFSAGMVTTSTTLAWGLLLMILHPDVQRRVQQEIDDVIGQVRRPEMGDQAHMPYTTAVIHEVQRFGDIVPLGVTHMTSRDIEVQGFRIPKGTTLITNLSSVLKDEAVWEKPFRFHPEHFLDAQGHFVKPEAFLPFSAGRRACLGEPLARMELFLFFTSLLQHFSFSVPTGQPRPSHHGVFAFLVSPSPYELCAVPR

Cytochrome P450 2C9 = Cytochrome P450 2C9 (Homo sapiens, UniProt P11712); assay: Inhibition of CYP2C9 in human liver microsomes using tolbutamide as substrate measured after 10 mins in presence of NADPH; type: ADME, Microsome
Chain of Cytochrome P450 2C9 (P11712 whole entry): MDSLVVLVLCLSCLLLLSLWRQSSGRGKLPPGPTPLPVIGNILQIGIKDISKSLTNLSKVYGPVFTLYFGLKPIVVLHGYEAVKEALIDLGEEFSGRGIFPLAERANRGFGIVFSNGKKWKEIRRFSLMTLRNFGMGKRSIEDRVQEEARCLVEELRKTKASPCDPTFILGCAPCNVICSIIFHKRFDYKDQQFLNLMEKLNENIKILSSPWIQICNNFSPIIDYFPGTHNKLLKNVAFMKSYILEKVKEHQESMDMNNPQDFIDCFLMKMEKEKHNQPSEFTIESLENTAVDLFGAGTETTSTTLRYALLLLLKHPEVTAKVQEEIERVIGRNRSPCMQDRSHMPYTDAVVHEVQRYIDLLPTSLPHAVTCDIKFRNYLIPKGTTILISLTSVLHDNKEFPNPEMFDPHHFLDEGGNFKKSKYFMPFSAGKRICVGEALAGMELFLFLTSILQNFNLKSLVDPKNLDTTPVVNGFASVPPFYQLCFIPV

[15] = target: Human immunodeficiency virus type 1 reverse transcriptase (Human immunodeficiency virus 1, UniProt Q72547); assay: Inhibition of wild type HIV-1 reverse transcriptase assessed as assessed as inhibition of biotin deoxyuridine triphosphate incorporation into […]
[16] = Acute toxicity in mouse assessed as histopathological changes in heart at 1000 mg/kg, po by Hematoxylin and eosin staining based microscopy; type: organism-based; conditions: in vivo
Cytochrome P450 3A4 [17] = target: T1, Cytochrome P450 3A4; assay: Inhibition of CYP3A4M in human liver microsomes using midazolam as substrate measured after 10 mins in presence of NADPH; type: ADME, Microsome
[18] = Acute toxicity in mouse assessed as histopathological changes in liver at 1000 mg/kg, po by Hematoxylin and eosin staining based microscopy; type: organism-based; conditions: in vivo
[19] = Acute toxicity in mouse assessed as histopathological changes in spleen at 1000 mg/kg, po by Hematoxylin and eosin staining based microscopy; type: organism-based; conditions: in vivo

| Structure (SMILES) | EC50 [1] [µM] | EC50 [2] [µM] | EC50 [3] [µM] | EC50 [4] [µM] | EC50 [5] [µM] | CC50 [6] [µM] | EC50 [7] [µM] | selectivity ratio [8] | EC50 [9] [µM] | further results |
| --- | --- | --- | --- | --- | --- | --- | --- | --- | --- | --- |
| Cc1c(C(N=[N+]=[N-])c2ccc3ccccc3c2)nc(SC(C)C)[nH]c1=O (centres undefined) | 11.3 | 0.44 | > 154 | 5.04 | 65 | 4.89 | 69.7 | 11 | 60.3 |  |
| Cc1cc(C)cc(C(N=[N+]=[N-])c2nc(SC(C)C)[nH]c(=O)c2C)c1 (centres undefined) | 1.05 | 0.053 | 2.51 | 0.26 | 7.88 | > 364 | 203 | > 6820 | 2.28 | Activity [10]: Non-Toxic; inhibition at 40 µM (hERG (KCNH2)): 41.4%; Activity [11]: Non-Toxic; Activity [12]: Non-Toxic; IC50 (Cytochrome P450 3A4 [13]): > 50 µM; Activity [14]: Non-Toxic; IC50 (Cytochrome P450 2C19): 27.1 µM; IC50 (Cytochrome P450 1A2): > 50 µM; IC50 (Cytochrome P450 2D6): > 50 µM; IC50 (Cytochrome P450 2C9): 35.8 µM; IC50 [15]: 0.08 µM; Activity [16]: Non-Toxic; IC50 (Cytochrome P450 3A4 [17]): > 50 µM; Activity [18]: Non-Toxic; Activity [19]: Non-Toxic |
| CCc1c(C(N=[N+]=[N-])c2ccc(C)cc2)nc(SC(C)C)[nH]c1=O (centres undefined) | 0.13 | 0.16 | 3.9 | 0.45 | 314 | > 364 | > 364 | > 2300 | 114 | IC50 [15]: 0.17 µM |
| CCc1c(C(N=[N+]=[N-])c2ccccc2)nc(SC(C)C)[nH]c1=O (centres undefined) | 12.2 | 0.14 | 6.03 | 0.55 | 14.9 | > 379 | 188 | > 2770 | 6.02 |  |
| CCc1c(C(N=[N+]=[N-])c2cccc3ccccc23)nc(SC(C)C)[nH]c1=O (centres undefined) | 9.18 | 0.96 | 71.6 | 7.34 | > 10.2 | 77.7 | 55.8 | 81 | 17.1 |  |
| CCc1c(C(N=[N+]=[N-])c2ccc(Br)cc2)nc(SC(C)C)[nH]c1=O (centres undefined) | 10.4 | 0.29 | 51.2 | 1.86 | 95.7 | > 306 | 160 | > 1040 | 65.2 |  |
| CCc1c(C(N=[N+]=[N-])c2cc(C)cc(C)c2)nc(SC(C)C)[nH]c1=O (centres undefined) | 0.97 | 0.067 | 4.82 | 0.41 | 14.3 | > 350 | > 350 | > 5240 | 4.68 | IC50 [15]: 0.1 µM |
| CCc1c(C(N=[N+]=[N-])c2ccc(OC(F)(F)F)cc2)nc(SC(C)C)[nH]c1=O (centres undefined) | 29.5 | 6.02 | 38.2 | 0.26 | 9.71 | > 302 | 62.2 | > 50 | 60.4 |  |
| COc1cc(OC)cc(C(N=[N+]=[N-])c2nc(SC(C)C)[nH]c(=O)c2C(C)C)c1 (centres undefined) | 10.2 | 1.78 | > 139 | 4.56 | 58.9 | 97.6 | 63.1 | 55 | 54.7 |  |
| CC(C)Sc1nc(C(N=[N+]=[N-])c2ccc3ccccc3c2)c(C(C)C)c(=O)[nH]1 (centres undefined) | 1.06 | > 4.78 | 3.3 | 0.09 | 7.39 | 4.79 | > 58.7 | < 1 | 1.4 |  |
| CC(C)Sc1nc(C(N=[N+]=[N-])c2ccc(Br)cc2)c(C(C)C)c(=O)[nH]1 (centres undefined) | 1.44 | 1.45 | 8.2 | 3.69 | > 32.2 | 32.8 | > 32.3 | 23 | > 32.2 |  |
| CCc1c(C(N=[N+]=[N-])c2ccc(Cl)cc2)nc(SC(C)C)[nH]c1=O (centres undefined) | 3.69 | 0.26 | 14.3 | 0.81 | > 127 | > 344 | > 344 | > 1310 | 95.2 |  |
| COc1cc(OC)cc(C(N=[N+]=[N-])c2nc(SC(C)C)[nH]c(=O)c2C)c1 (centres undefined) | 2.62 | 0.34 | 107 | 1.54 | 38.5 | > 333 | > 333 | > 983 | 9.85 |  |
